Measurements taken from US20130018360A1 (priority 2011, published 2013).

Test system: IOP (intra-ocular pressure)
Test: Clinical studies: change from baseline IOP after 20 nL nanodoses of bimatoprost
Assay type: in vivo, humans
Settings: ~1 μg BP dosed as 20 nL on Days 0-3; IOP collected ~24 hours post-dose
Description: These IOP (intra-ocular pressure) data were collected ˜24 hours post-dose on each day. […] The Day 5 data shown in FIG. 1 below are the change from baseline IOP values following application of Lumigan.

Structure (SMILES): CCNC(=O)CCC/C=C\C[C@@H]1[C@@H](/C=C/[C@@H](O)CCc2ccccc2)[C@H](O)C[C@@H]1O [BP, bimatoprost]
- IOP-lowering effect (change from baseline IOP): IOP-lowering effect can occur
